From patent US20160235727A1, “NOVEL PYRROLIDINE DERIVED BETA 3 ADRENERGIC RECEPTOR AGONISTS” (Merck Sharp & Dohme Corp., priority 2013, published 2016)

Experiments:
[1] = test system: rats; conditions: cited from earlier work
[2] = biological target: T1, human β3-AR (Homo sapiens, UniProt P13945); assay: cAMP functional agonist assay (LANCE TR-FRET) in CHO cells expressing cloned human β3-AR; format: cell-based; conditions: for EC50: CHO cells stably expressing cloned human β3-adrenoceptor, cAMP release, read-out: Human β3-AR Agonism EC50; for Human β3-AR Agonist Activity (%): percent maximum activation relative to isoproterenol; for Fold drop in potency vs. 2-chloropyridine analog: EC50 of comparative example divided by EC50 of corresponding 2-chloropyridine compound
T1 construct: expressed in transfected cells; host or cells: CHO (Chinese hamster ovary) cells, stably transfected

[3] = intravenous, cystometric studies

T1 sequence (P13945 whole entry): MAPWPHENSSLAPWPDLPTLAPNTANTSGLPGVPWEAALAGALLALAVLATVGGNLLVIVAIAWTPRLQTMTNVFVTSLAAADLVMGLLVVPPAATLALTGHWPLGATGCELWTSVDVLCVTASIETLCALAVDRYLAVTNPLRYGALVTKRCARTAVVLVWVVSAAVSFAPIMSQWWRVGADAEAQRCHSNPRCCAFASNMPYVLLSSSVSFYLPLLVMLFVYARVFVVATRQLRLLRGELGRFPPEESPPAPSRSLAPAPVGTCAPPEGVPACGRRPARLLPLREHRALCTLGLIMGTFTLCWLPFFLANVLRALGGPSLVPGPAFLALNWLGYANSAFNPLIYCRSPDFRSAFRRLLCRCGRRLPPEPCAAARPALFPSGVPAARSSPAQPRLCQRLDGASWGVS

| Structure (SMILES) | bladder pressure ([1]; intravenous administration) | bladder capacity [1, 3] | micturition interval [1, 3] | residual urine volume [1, 3] | EC50 [2] [µM] | Human β3-AR Agonist Activity (%) [2] [%] | Fold drop in potency vs. 2-chloropyridine analog [2] [fold] |
| --- | --- | --- | --- | --- | --- | --- | --- |
| C[C@H](Cc1ccc2c(c1)OC(C(=O)[O-])(C(=O)[O-])O2)NC[C@H](O)c1cccc(Cl)c1.[Na+].[Na+] [CL316243] | reduces | increases | prolongation | without increasing |  |  |  |
| CN(Cc1ccnnc1)C(=O)c1ccc(C[C@@H]2CC[C@H]([C@H](O)c3ccc(Cl)nc3)N2)cc1 [Example 42-A, 4-(((2S,5R)-5-((R)-(6-chloropyridin-3-yl)(hydroxy)methyl)pyrrolidin-2-yl)methyl)-N-methyl-N-(pyridazin-4-ylmethyl)benzamide] |  |  |  |  | 0.003 | 94 |  |
| CN(Cc1ccnnc1)C(=O)c1ccc(C[C@@H]2CC[C@H]([C@H](O)c3ccccc3)N2)cc1 [Example 42-B, 4-(((2S,5R)-5-((R)-hydroxy(phenyl)methyl)pyrrolidin-2-yl)methyl)-N-methyl-N-(pyridazin-4-ylmethyl)benzamide] |  |  |  |  | 0.055 | 111 | 16.1 |
| Cc1nnc2ccc(CN(C)C(=O)c3ccc(C[C@@H]4CC[C@H]([C@H](O)c5ccc(Cl)nc5)N4)cc3)cn12 [Example 43-A, 4-(((2S,5R)-5-((R)-(6-chloropyridin-3-yl)(hydroxy)methyl)pyrrolidin-2-yl)methyl)-N-methyl-N-((3-methyl-[1,2,4]triazolo[4,3-a]pyridin-6-yl)methyl)benzamide] |  |  |  |  | > 10 | 45 |  |
| Cc1nnc2ccc(CN(C)C(=O)c3ccc(C[C@@H]4CC[C@H]([C@H](O)c5ccccc5)N4)cc3)cn12 [Example 43-B, 4-(((2S,5R)-5-((R)-hydroxy(phenyl)methyl)pyrrolidin-2-yl)methyl)-N-methyl-N-((3-methyl-[1,2,4]triazolo[4,3-a]pyridin-6-yl)methyl)benzamide] |  |  |  |  | 1.62 | 79 | <0.12 |
| CN(Cc1nc2ccsc2c(=O)[nH]1)C(=O)c1ccc(C[C@@H]2CC[C@H]([C@H](O)c3ccc(Cl)nc3)N2)cc1 [Example 44-A, 4-(((2S,5R)-5-((R)-(6-chloropyridin-3-yl)(hydroxy)methyl)pyrrolidin-2-yl)methyl)-N-methyl-N-((4-oxo-3,4-dihydrothieno[3,2-d]pyrimidin-2-yl)methyl)benzamide] |  |  |  |  | 0.002 | 99 |  |
| CN(Cc1nc2ccsc2c(=O)[nH]1)C(=O)c1ccc(C[C@@H]2CC[C@H]([C@H](O)c3ccccc3)N2)cc1 [Example 44-B, 4-(((2S,5R)-5-((R)-hydroxy(phenyl)methyl)pyrrolidin-2-yl)methyl)-N-methyl-N-((4-oxo-3,4-dihydrothieno[3,2-d]pyrimidin-2-yl)methyl)benzamide] |  |  |  |  | 0.004 | 97 | 1.7 |
| CN(Cc1nc2ccccc2c(=O)n1C)C(=O)c1ccc(C[C@@H]2CC[C@H]([C@H](O)c3ccc(Cl)nc3)N2)cc1 [Example 45-A, 4-(((2S,5R)-5-((R)-(6-chloropyridin-3-yl)(hydroxy)methyl)pyrrolidin-2-yl)methyl)-N-methyl-N-((3-methyl-4-oxo-3,4-dihydroquinazolin-2-yl)methyl)benzamide] |  |  |  |  | 0.025 | 90 |  |
| CN(Cc1nc2ccccc2c(=O)n1C)C(=O)c1ccc(C[C@@H]2CC[C@H]([C@H](O)c3ccccc3)N2)cc1 [Example 45-B, 4-(((2S,5R)-5-((R)-hydroxy(phenyl)methyl)pyrrolidin-2-yl)methyl)-N-methyl-N-((3-methyl-4-oxo-3,4-dihydroquinazolin-2-yl)methyl)benzamide] |  |  |  |  | 0.065 | 81 | 2.6 |
